From patent US10131652B2, “Pyrimidinyloxy benzene derivatives as herbicides” (E. I. DU PONT DE NEMOURS AND COMPANY, priority 2014, dated 2018)

How the values were obtained:
Type in all cases: in vivo
rice (Oryza sativa) = assay: Test C flooded paddy test plant response; conditions: Flood, 250 g ai/ha; scale of 0 to 100 where 0 is no effect and 100 is complete control; 13 to 15 days
Method: (§1) Plant species in the flooded paddy test selected from rice (Oryza sativa), small-flower umbrella sedge (Cyperus difformis), ducksalad (Heteranthera limosa), and bamyardgrass (Echinochloa crus-galli) were grown to the 2-leaf stage for testing. At time of treatment, test pots were flooded to 3 cm above the soil surface, treated by application of test compounds directly to the paddy water, and then maintained at that water depth for the duration of the test. Treated plants and controls were maintained in a greenhouse for 13 to 15 days, after which time all species were compared to controls and visually evaluated. Plant response ratings, summarized in Table C, are based on a scale of 0 to 100 where 0 is no effect and 100 is complete control. A dash (-) response means no test result.

[1] = tested on: small-flower umbrella sedge (Cyperus difformis); assay: Test C flooded paddy test plant response; conditions: Flood, 250 g ai/ha; scale of 0 to 100 where 0 is no effect and 100 is complete control; 13 to 15 days
Method: as §1

[2] = tested on: ducksalad (Heteranthera limosa); assay: Test C flooded paddy test plant response; conditions: Flood, 250 g ai/ha; scale of 0 to 100 where 0 is no effect and 100 is complete control; 13 to 15 days
Method: as §1

[3] = tested on: barnyardgrass (Echinochloa crus-galli); assay: Test C flooded paddy test plant response; conditions: Flood, 250 g ai/ha; scale of 0 to 100 where 0 is no effect and 100 is complete control; 13 to 15 days
Method: as §1

kochia (Kochia scoparia) = assay: Test B pre-/postemergence plant response
Source text: (§2) Seeds of plant species selected from bamyardgrass (Echinochloa crus-galli), kochia (Kochia scoparia), ragweed (common ragweed, Ambrosia elatior), Italian ryegrass (Lolium multiflorum), large (Lg) crabgrass (Digitaria sanguinalis), giant foxtail (Setaria faberii), momingglory (Ipomoea spp.), pigweed (Amaranthus retroflexus), velvetleaf (Abutilon theophrasti), wheat (Triticum aestivum), and corn (Zea mays) were planted into a blend of loam soil and sand and treated preemergence with a directed soil spray using test chemicals formulated in a non-phytotoxic solvent mixture which included a surfactant. At the same time, plants selected from these crop and weed species and also blackgrass (Alopecurus myosuroides), and galium (catchweed bedstraw, Galium aparine) were planted in pots containing the same blend of loam soil and sand and treated with postemergence applications of test chemicals formulated in the same manner. Plants ranged in height from 2 to 10 cm and were in the one- to two-leaf stage for the postemergence treatment. Treated plants and untreated controls were maintained in a greenhouse for approximately 10 days, after which time all treated plants were compared to untreated controls and visually evaluated for injury. Plant response ratings, summarized in Table B, are based on a 0 to 100 scale where 0 is no effect and 100 is complete control. A dash (-) response means no test result.

[4] = tested on: pigweed (Amaranthus retroflexus); assay: Test B pre-/postemergence plant response
Source text: as §2

[5] = tested on: Italian ryegrass (Lolium multiflorum); assay: Test B pre-/postemergence plant response
Source text: as §2

corn (Zea mays) = assay: Test B pre-/postemergence plant response
Source text: as §2

[6] = tested on: ragweed (common ragweed, Ambrosia elatior); assay: Test B pre-/postemergence plant response
Source text: as §2

[7] = tested on: wheat (Triticum aestivum); assay: Test B pre-/postemergence plant response
Source text: as §2

[8] = tested on: giant foxtail (Setaria faberii); assay: Test B pre-/postemergence plant response
Source text: as §2

[9] = tested on: barnyardgrass (Echinochloa crus-galli); assay: Test B pre-/postemergence plant response
Source text: as §2

[10] = tested on: blackgrass (Alopecurus myosuroides); assay: Test B postemergence plant response
Source text: (§3) At the same time, plants selected from these crop and weed species and also blackgrass (Alopecurus myosuroides), and galium (catchweed bedstraw, Galium aparine) were planted in pots containing the same blend of loam soil and sand and treated with postemergence applications of test chemicals formulated in the same manner. Plants ranged in height from 2 to 10 cm and were in the one- to two-leaf stage for the postemergence treatment. Treated plants and untreated controls were maintained in a greenhouse for approximately 10 days, after which time all treated plants were compared to untreated controls and visually evaluated for injury. Plant response ratings, summarized in Table B, are based on a 0 to 100 scale where 0 is no effect and 100 is complete control. A dash (-) response means no test result.

[11] = tested on: galium (catchweed bedstraw, Galium aparine); assay: Test B postemergence plant response
Source text: as §3

[12] = tested on: velvetleaf (Abutilon theophrasti); assay: Test B pre-/postemergence plant response; conditions: 1000 g ai/ha, 0 to 100 scale (0 no effect, 100 complete control)
Source text: as §2

[13] = tested on: morningglory (Ipomoea spp.); assay: Test B pre-/postemergence plant response; conditions: 1000 g ai/ha, 0 to 100 scale (0 no effect, 100 complete control)
Source text: as §2

[14] = tested on: large (Lg) crabgrass (Digitaria sanguinalis); assay: Test B pre-/postemergence plant response; conditions: 1000 g ai/ha, 0 to 100 scale (0 no effect, 100 complete control)
Source text: as §2

[15] = 31 g ai/ha, Postemergence, 0 to 100 scale, 0 no effect, 100 complete control
[16] = 125 g ai/ha, postemergence, 0 to 100 scale, 0 no effect, 100 complete control
[17] = Preemergence, 31 g ai/ha, 0 to 100 scale (0 no effect, 100 complete control)
[18] = Preemergence, 125 g ai/ha, 0 to 100 scale where 0 is no effect and 100 is complete control
[19] = 31 g ai/ha, Preemergence, 0 to 100 scale where 0 is no effect and 100 is complete control
[20] = Postemergence, 31 g ai/ha, 0 to 100 scale (0 no effect, 100 complete control)
[21] = Preemergence, 125 g ai/ha, 0 to 100 scale (0 no effect, 100 complete control)
[22] = Postemergence, 500 g ai/ha, 0 to 100 scale (0 no effect, 100 complete control)
[23] = Preemergence, 500 g ai/ha, 0 to 100 scale where 0 is no effect and 100 is complete control
[24] = Postemergence, 1000 g ai/ha, 0 to 100 scale (0 no effect, 100 complete control)
[25] = Preemergence, 1000 g ai/ha, 0 to 100 scale (0 no effect, 100 complete control)

CC(C)n1cnc(-c2ccccc2Oc2ncc(Cl)cn2)n1 [Compound 73]
Rice plant response rating (rice (Oryza sativa)): 0 | Sedge, Umbrella plant response rating [1]: 0 | Ducksalad plant response rating [2]: 0 | Barnyardgrass plant response rating [3]: 0 | Plant response rating, Kochia (kochia (Kochia scoparia); [15]): 0 | Plant response rating, Kochia (kochia (Kochia scoparia); [16]): 0 | Kochia plant response rating (kochia (Kochia scoparia); [17]): 0 | Plant response rating, Kochia (kochia (Kochia scoparia); [18]): 0 | Plant response rating, Pigweed [4, 15]: 0 | Plant response rating, Pigweed [4, 16]: 10 | Pigweed plant response rating [4, 17]: 0 | Plant response rating, Pigweed [4, 18]: 0 | Plant response rating, Ryegrass, Italian [5, 15]: 0 | Plant response rating, Ryegrass, Italian [5, 16]: 0 | Ryegrass, Italian plant response rating [5, 17]: 0 | Plant response rating, Ryegrass, Italian [5, 18]: 0 | Plant response rating, Corn (corn (Zea mays); [15]): 0 | Plant response rating, Corn (corn (Zea mays); [16]): 0 | Plant response rating, Ragweed [6, 15]: 0 | Plant response rating, Ragweed [6, 16]: 0 | Ragweed plant response rating [6, 17]: 0 | Plant response rating, Ragweed [6, 18]: 0 | Plant response rating, Wheat [7, 15]: 0 | Plant response rating, Wheat [7, 16]: 0 | Plant response rating, Foxtail, Giant [8, 15]: 0 | Plant response rating, Foxtail, Giant [8, 16]: 0 | Foxtail, Giant plant response rating [8, 17]: 0 | Plant response rating, Foxtail, Giant [8, 18]: 0 | Plant response rating, Barnyardgrass [9, 15]: 0 | Plant response rating, Barnyardgrass [9, 16]: 0 | Barnyardgrass plant response rating [9, 17]: 0 | Plant response rating, Barnyardgrass [9, 18]: 0 | Plant response rating, Blackgrass [10, 15]: 0 | Plant response rating, Blackgrass [10, 16]: 0 | Plant response rating, Galium [11, 15]: 0 | Plant response rating, Galium [11, 16]: 10

Fc1cnc(Oc2ccccc2-c2cnccn2)nc1 [Compound 164]
Rice plant response rating (rice (Oryza sativa)): 0 | Sedge, Umbrella plant response rating [1]: 0 | Ducksalad plant response rating [2]: 0 | Barnyardgrass plant response rating [3]: 0 | Plant response rating, Kochia (kochia (Kochia scoparia); [19]): 0 | Plant response rating, Kochia (kochia (Kochia scoparia); [16]): 0 | Plant response rating, Kochia (kochia (Kochia scoparia); [20]): 0 | Kochia plant response rating (kochia (Kochia scoparia); [21]): 0 | Plant response rating, Pigweed [4, 19]: 0 | Plant response rating, Pigweed [4, 16]: 30 | Plant response rating, Pigweed [4, 20]: 0 | Pigweed plant response rating [4, 21]: 30 | Plant response rating, Ryegrass, Italian [5, 19]: 0 | Plant response rating, Ryegrass, Italian [5, 16]: 0 | Plant response rating, Ryegrass, Italian [5, 20]: 0 | Ryegrass, Italian plant response rating [5, 21]: 0 | Plant response rating, Corn (corn (Zea mays); [16]): 0 | Plant response rating, Corn (corn (Zea mays); [20]): 0 | Plant response rating, Ragweed [6, 19]: 0 | Plant response rating, Ragweed [6, 16]: 30 | Plant response rating, Ragweed [6, 20]: 20 | Ragweed plant response rating [6, 21]: 0 | Plant response rating, Wheat [7, 16]: 0 | Plant response rating, Wheat [7, 20]: 0 | Plant response rating, Foxtail, Giant [8, 19]: 0 | Plant response rating, Foxtail, Giant [8, 16]: 0 | Plant response rating, Foxtail, Giant [8, 20]: 0 | Foxtail, Giant plant response rating [8, 21]: 0 | Plant response rating, Barnyardgrass [9, 19]: 0 | Plant response rating, Barnyardgrass [9, 16]: 0 | Plant response rating, Barnyardgrass [9, 20]: 0 | Barnyardgrass plant response rating [9, 21]: 0 | Plant response rating, Blackgrass [10, 16]: 0 | Plant response rating, Blackgrass [10, 20]: 0 | Plant response rating, Galium [11, 16]: 30 | Plant response rating, Galium [11, 20]: 10

Clc1cnc(Oc2ccccc2-c2cc(Cl)ncn2)nc1 [Compound 190]
Rice plant response rating (rice (Oryza sativa)): 0 | Sedge, Umbrella plant response rating [1]: 0 | Ducksalad plant response rating [2]: 0 | Barnyardgrass plant response rating [3]: 0 | Plant response rating, Kochia (kochia (Kochia scoparia); [16]): 0 | Plant response rating, Kochia (kochia (Kochia scoparia); [22]): 0 | Kochia plant response rating (kochia (Kochia scoparia); [21]): 0 | Plant response rating, Kochia (kochia (Kochia scoparia); [23]): 0 | Plant response rating, Pigweed [4, 16]: 0 | Plant response rating, Pigweed [4, 22]: 20 | Pigweed plant response rating [4, 21]: 0 | Plant response rating, Pigweed [4, 23]: 10 | Plant response rating, Ryegrass, Italian [5, 16]: 0 | Plant response rating, Ryegrass, Italian [5, 22]: 0 | Ryegrass, Italian plant response rating [5, 21]: 0 | Plant response rating, Ryegrass, Italian [5, 23]: 0 | Plant response rating, Corn (corn (Zea mays); [16]): 0 | Plant response rating, Corn (corn (Zea mays); [22]): 0 | Plant response rating, Ragweed [6, 16]: 10 | Plant response rating, Ragweed [6, 22]: 10 | Ragweed plant response rating [6, 21]: 0 | Plant response rating, Ragweed [6, 23]: 0 | Plant response rating, Wheat [7, 16]: 0 | Plant response rating, Wheat [7, 22]: 0 | Plant response rating, Foxtail, Giant [8, 16]: 0 | Plant response rating, Foxtail, Giant [8, 22]: 0 | Foxtail, Giant plant response rating [8, 21]: 0 | Plant response rating, Foxtail, Giant [8, 23]: 10 | Plant response rating, Barnyardgrass [9, 16]: 0 | Plant response rating, Barnyardgrass [9, 22]: 0 | Barnyardgrass plant response rating [9, 21]: 0 | Plant response rating, Barnyardgrass [9, 23]: 0 | Plant response rating, Blackgrass [10, 16]: 0 | Plant response rating, Blackgrass [10, 22]: 0 | Plant response rating, Galium [11, 16]: 0 | Plant response rating, Galium [11, 22]: 10

CN(C)c1ccc(-c2ccccc2Oc2ncc(Cl)cn2)cn1 [Compound 2]
Plant response rating, Velvetleaf ([12]; Postemergence): 50 | Plant response rating, Velvetleaf ([12]; Preemergence): 20 | Plant response rating, Pigweed [4, 24]: 70 | Plant response rating, Pigweed [4, 25]: 100 | Plant response rating, Corn (corn (Zea mays); [24]): 0 | Plant response rating, Corn (corn (Zea mays); [25]): 0 | Plant response rating, Morningglory ([13]; Postemergence): 40 | Plant response rating, Morningglory ([13]; Preemergence): 0 | Plant response rating, Crabgrass, Large ([14]; Postemergence): 0 | Plant response rating, Crabgrass, Large ([14]; Preemergence): 10 | Plant response rating, Wheat [7, 24]: 0 | Plant response rating, Wheat [7, 25]: 0 | Plant response rating, Foxtail, Giant [8, 24]: 0 | Plant response rating, Foxtail, Giant [8, 25]: 10 | Plant response rating, Barnyardgrass [9, 24]: 0 | Plant response rating, Barnyardgrass [9, 25]: 0
